Laboratory results as given in PMC9016773 (Journal of chemical information and modeling, 2022).
“Also recorded” adds a separate entry of the source.

Key:
[1] = system: actin filaments underlying the plasma membrane (cortex actin); conditions: inhibits HSPG-mediated endocytosis; cited from earlier work
[2] = system: cortex actin filaments in U2OS cells; format: cell-based
[3] = system: SARS-CoV-2 pseudotyped particles; format: cell-based; conditions: read-out: IC50, anti-pseudotyped particle activity
[4] = system: HSPG-mediated endocytosis of α-Synuclein fibrils in HEK293T cells; assay: α-Synuclein fibrils uptake assay; format: cell-based; conditions: among the top 10 inhibitors
SARS-CoV-2 = conditions: among drugs of the repurposing screen; cited from earlier work

In the case of `O=C1/C(=C/c2ccccc2)C[C@@]2(O)[C@H]3Cc4ccc(O)c5c4[C@@]2(CCN3CC2CC2)[C@H]1O5` [BNTX], the “Disruption of actin filaments underlying the plasma membrane (cortex actin)” value [1] is listed as “effectively disrupt the actin filaments”.

In the case of `CC(C)S(=O)(=O)c1oc(-c2ccc(F)cc2)nc1S(=O)(=O)c1ccccc1` [NCGC00115755-02], the “Effect on actin filaments (phalloidin-Alexa488 staining)” value [2] is reported as “dose-dependent disruption of cortex actin filaments; also recorded: causes the disassembly of actin stress fiber and generates large actin aggregates” and the IC50 [3] is reported as 5 µM.

With `O=C(Oc1cccc2cccnc12)c1ccccc1` [NCGC00159478] the “Inhibition of the entry of pHrodo-labeled α-Synuclein fibrils (ranking in words)” value [4] was “highest inhibition”.

In the case of `CN(C)CCNC(=O)c1nc(-c2ccc(N3CCN(C)CC3)cc2)cc2c1ccn2C` [NCGC00411718], the “Inhibition of the entry of pHrodo-labeled α-Synuclein fibrils (ranking in words)” value [4] is reported as “highest inhibition”.

In the case of `CCN(CC)CCNC(=O)c1c(C)[nH]c(/C=C2\C(=O)Nc3ccc(F)cc32)c1C` [Sunitinib], the “Disruption of actin filaments underlying the plasma membrane (cortex actin)” value [1] is listed as “effectively disrupt the actin filaments”.

In the case of `O=C1c2c(O)ccc(O)c2C(=O)c2c(NCCNCCO)ccc(NCCNCCO)c21` [mitoxantrone], the “Antiviral activity in vitro (in words)” value (SARS-CoV-2) is listed as “most potent antiviral activity in vitro”.
